Experimental data from US11001613B2, “TFPI inhibitors and methods of use” (priority 2008, dated 2021).
Residues, ends and D or L forms follow the SMILES beside them.

Legend:
TFPI-1 = target: T1, TFPI-1 (Homo sapiens, UniProt P10646); assay: FXa inhibition assay; type: biochemical; conditions: OD readings after 115 minutes
T1 sequence (P10646 29-304): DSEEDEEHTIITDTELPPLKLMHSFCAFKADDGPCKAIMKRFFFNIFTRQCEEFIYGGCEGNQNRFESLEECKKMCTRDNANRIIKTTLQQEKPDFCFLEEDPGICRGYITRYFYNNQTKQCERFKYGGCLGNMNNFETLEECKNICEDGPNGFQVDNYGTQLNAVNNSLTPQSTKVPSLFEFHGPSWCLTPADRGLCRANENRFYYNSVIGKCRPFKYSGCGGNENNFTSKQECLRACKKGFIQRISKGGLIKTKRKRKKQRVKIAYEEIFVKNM

[1] = in vivo, iv, 10 mg/kg
Method: The peptides were administered intravenously to C57Bl6 mice at a dose of 10 mg/kg. Three biological samples were analyzed for the presence of peptide at each time point.

[2] = tested on: TFPI-dependent thrombin generation in FVIII deficient plasma; assay: thrombin generation (calibrated automated thrombography) in FVIII deficient plasma; conditions: plasma-based assay, FIGS. 11A and 11B

CC(=O)N[C@@H](Cc1ccccc1)C(=O)N[C@@H](CCC(N)=O)C(=O)N[C@@H](CO)C(=O)N[C@@H](CCCCN)C(=O)N[C@@H](CC(N)=O)C(=O)N[C@@H](CC(N)=O)C(=O)N[C@H](C(=O)N[C@@H](Cc1ccccc1)C(=O)N[C@H](C(=O)N[C@@H](Cc1ccccc1)C(=O)NCC(=O)N[C@@H](Cc1ccc(O)cc1)C(=O)N[C@@H](Cc1ccccc1)C(=O)N[C@@H](CCC(=O)O)C(=O)N[C@@H](CCCNC(=N)N)C(=O)N[C@@H](CC(C)C)C(=O)N[C@@H](CCCNC(=N)N)C(=O)N[C@@H](C)C(=O)N[C@@H](CCCCN)C(=O)N[C@@H](CC(C)C)C(N)=O)C(C)C)C(C)C [JBT0297] (Ac-FQSKNNVFVFGYFERLRAKL-NH2)
EC50 (TFPI-1): 600 nM

CC(=O)N[C@@H](Cc1ccccc1)C(=O)N[C@@H](CCC(N)=O)C(=O)N[C@@H](CO)C(=O)N[C@@H](CCCCN)C(=O)NCC(=O)N[C@@H](CC(N)=O)C(=O)N[C@H](C(=O)N[C@@H](Cc1ccccc1)C(=O)N[C@H](C(=O)N[C@@H](CC(=O)O)C(=O)NCC(=O)N[C@@H](Cc1ccc(O)cc1)C(=O)N[C@@H](Cc1ccccc1)C(=O)N[C@@H](CCC(=O)O)C(=O)N[C@@H](CCCNC(=N)N)C(=O)N[C@@H](CC(C)C)C(=O)NC(C)(C)C(=O)N[C@@H](C)C(=O)N[C@@H](CCCCN)C(=O)N[C@@H](CC(C)C)C(N)=O)C(C)C)C(C)C [JBT0740]
concentration of peptide in mouse plasma over time [1]: rapidly cleared from the plasma

CSCC[C@@H]1NC(=O)CNC(=O)[C@@H](NC(=O)[C@H](Cc2ccccc2)NC(=O)[C@H](Cc2c[nH]c3ccccc23)NC(=O)[C@H](CCCCN)NC(=O)[C@H](Cc2ccc(O)cc2)NC(=O)[C@H](CCCNC(=N)N)NC(=O)[C@H](CO)NC(=O)[C@H](C)NC(=O)CNC(=O)[C@H](CO)NC(C)=O)CSSC[C@@H](C(=O)N[C@H](C(=O)N[C@@H](Cc2c[nH]c3ccccc23)C(=O)N[C@H](C(=O)N[C@@H](CCCCN)C(=O)N[C@@H](Cc2ccccc2)C(=O)N[C@@H](CCCNC(=N)N)C(=O)N[C@@H](Cc2ccc(O)cc2)C(=O)N[C@@H](CC(=O)O)C(=O)N[C@H](C(=O)N[C@@H](CO)C(N)=O)[C@@H](C)O)C(C)C)C(C)C)NC(=O)[C@H](CO)NC(=O)[C@H](CCSC)NC(=O)[C@H]([C@@H](C)O)NC(=O)CNC(=O)[C@H](CCCCN)NC(=O)[C@H](CCSC)NC(=O)[C@H](CC(=O)O)NC(=O)[C@H](CCCNC(=N)N)NC1=O [JBT0120]
peak thrombin and peak time [2]: improved peak thrombin and peak time, dose dependently
